Measurements as given in US20250120975A1, “INTEGRIN INHIBITORS FOR TREATMENT OF PRIMARY SCLEROSING CHOLANGITIS” (Pliant Therapeutics, Inc., priority 2023, published 2025).

Legend:
[1] = test system: BALB/c.Mdr2−/− mouse model of biliary fibrosis; test: Connective tissue (picrosirius red) histology; format: in vivo; conditions: 300 and 1000 mg/kg, 6 weeks
Description: The tissue source is BALBc.Mdr2-/−male mice that were 6 weeks old. The Mdr2(abcb4)−/− mouse model of sclerosing cholangitis has been previously described and is a model of spontaneously progressive hepatic fibrosis in mice with deletion of the biliary phospholipid flippase on fibrosis-susceptible background (Mdr2(abcb4)^−/−. BALB/c mouse). See N. Ikenaga, et al. (2015) Am J Pathol. 185 (2): 325-334, the entire contents of which are hereby incorporated by reference in their entirety.
(S)-4-((2-methoxyethyl)(4-(5,6,7,8-tetrahydro-1,8-naphthyridin-2-yl)butyl)amino)-2-(quinazolin-4-ylamino)butanoic acid (or PBS) was dosed once daily orally at 100 mg/kg, 300 mg/kg or 1000 mg/kg (see Table B-2) starting at 6 weeks after birth of the subject and continuing for 6 weeks. All animals were euthanized and necropsied at the end of week 12.
Connective tissue stains were carried out to morphometrically assess fibrosis, through analysis of 10 high power fields per animal.

[2] = test system: PCLivS from human liver tissue with biliary fibrosis (PSC, PBC); test: Fibrotic gene expression (NanoString) in precision cut liver slices; format: cell-based
[3] = test system: PCLivS from human liver tissue with biliary fibrosis (PSC, PBC); test: as above; format: cell-based; conditions: for % Inhibition of expression COL1A1 / % Inhibition of expression COL1A2: PCLivS from a single PSC liver
Description: A human liver tissue explant was obtained from a PSC patient undergoing liver transplantation.
Slicing: To slice, 8-mm cores were punctured from the liver tissue and were stored in ice cold UW solution until slicing. A tissue core was glued onto the center of the plunger of the specimen syringe for slicing. The core was embedded in 2% low gelling temperature agarose made up in milliQ water. The thickness of the slice was adjusted to 400 μm and was sectioned into oxygenated KHB occurs. The slices were stored in cold UW solution on ice until all slices were cut.
Culture: The compounds were diluted to 1000× concentration in 100% DMSO. The compounds were diluted in a medium with a final concentration of 0.1% DMSO before transferring the slices and making a fresh medium for each 24-H medium change. Before being used for slice culture, all media was equilibrated in the incubator at culture conditions for 30 minutes. After all slices have been cut, all slices were transferred to wells prefilled with oxygenated, warmed, and equilibrated WEGG. The slices were incubated for 1 hour in the incubator at a temperature of 37° C., 5% CO2, 80% 02, 100% humidity on shaking platform set at 55 rpm. After this one-hour recovery, the slices were transferred to wells prefilled with oxygenated, warmed, and equilibrated WEGG with appropriate treatments. The slices were distributed into the treatment groups to account for inter-core variability. The slices were cultured at 37° C., 80% 02, 5% CO2, 100% humidity on shaking platform set at 55 rpm. The medium was changed after 24 hours.
The slices were removed from the well and rinsed in PBS. Excess liquid was removed. The slices were transferred to a microtube pooling all three slices from the same treatment into one tube. The pooled slices were snap frozen in liquid nitrogen and placed on dry ice until all samples were collected and then transferred to −80° C. for storage. For media collection, 140 μL of medium was pooled from each well within a treatment group and transferred to a 96-well Axygen plate. After sealing the plate, spin down occurred at 4000×g for 10 minutes at 4° C. Then, 130 μL aliquots were transferred into 3 new plates. The plates were sealed and stored at −80° C.
(S)-4-((2-methoxyethyl)(4-(5,6,7,8-tetrahydro-1,8-naphthyridin-2-yl)butyl)amino)-2-(quinazolin-4-ylamino)butanoic acid was tested at 100 nM, 1 μM, and 10 μM. OCA, an FXR agonist in clinical trials for PSC, was used at 250 nM and 2.5 μM reflecting Cmax levels observed in clinical trials. An ALK5 inhibitor (R268712) was used at 1 μM (400 times its IC50 per manufacturer) to target max inhibition of the ALK5 receptor.
Methods: Lysis buffer was made with one third RLT buffer in RNAse-free water and 2 mg/mL proteinase K. About 100-200 μL lysis buffer was added to each pool of 3 liver slices. Samples were incubated at 55° C. in the bead bath for 2 hours and 45 minutes, vortexing every 30 minute. Samples were centrifuged and the supernatant aliquoted in 15 μL aliquots into 96-well Axygen plates.
Methods: nCounter PlexSet was run according to standard protocol. Briefly, probe A and probe B were diluted with TE-tween to Working Probe Pools and mixed with hybridization buffer. This master mix was added to the A-H PlexSets and mixed. Each PlexSet was added across a row to a 96 well qPCR plate and proteinase K was added to a final concentration of 2 mg/mL. Lysate from samples was added to appropriate wells and mixed. The plate was sealed, spun, and placed in thermocycler at 67° C. for 16 hours. Hybridized samples were pooled down columns and 35 μL were loaded on a Sprint Cartridge and run on the nCounter Sprint. Data analysis was performed in nSolver using background thresholding based on negative controls, positive control normalization, reference sample normalization and normalization to housekeeping genes (GUSB, HPRT1, POLR1B, RPLP0, SRFS4, and/or UBC). […]

[4] = Effect of food on pharmacokinetics of the solution; format: in vivo
[5] = relative to inhibition with high dose ALK5 inhibitor, PCLivS from 10 livers
[6] = ≥1 μM, PCLivS from 10 livers with biliary fibrosis (6 PSC, 4 PBC), 2 days

## COCCN(CCCCc1ccc2c(n1)NCCC2)CC[C@H](Nc1ncnc2ccccc12)C(=O)O [Bexotegrast, (S)-4-((2-methoxyethyl)(4-(5,6,7,8-tetrahydro-1,8-naphthyridin-2-yl)butyl)amino)-2-(quinazolin-4-ylamino)butanoic acid]
[1]
  fibrosis by picrosirius red histological staining: significant reductions
[2]; [5]
  inhibition of the TGF-β-driven COLIA2 expression: ≤ 43%
[2]; [6]
  significant reduction in expression of COLIA2: 19%
  significant reduction in expression of TGF-81: 24%
  trend down in overall expression of COL3A1: 15%
[3]; 100 nM, 2 days
  % Inhibition of expression COL1A1: −6%
  % Inhibition of expression COL1A2: −8%
[3]; 1 μM, 2 days
  % Inhibition of expression COL1A1: 27%
  % Inhibition of expression COL1A2: 9%
[3]; 10 μM, 2 days
  % Inhibition of expression COL1A1: 61%
  % Inhibition of expression COL1A2: 41%
[3]; PCLivS from human PSC liver tissue, 2 days
  dose dependence of COLIA1 and COLIA2 mRNA expression: reduced in a dose dependent manner
[3]; [5]
  inhibition of the TGF-β-driven COL3A1 expression: ≤ 41%
  inhibition of the TGF-β-driven COLIA1 expression: up to 28%
  inhibition of the TGF-β-driven TGF-81 expression: ≤ 48%
[3]; [6]
  trend down in overall expression of COLIA1: 22%
[4]
  decrease of AUCinf in the fed state relative to the fasted state: 37%
  decrease of Cmax in the fed state relative to the fasted state: 52%
